Data taken from patent US6551632B2, “Methods and compositions for treating inflammatory bowel disease” (priority 1997, dated 2003).

Test system: Patients with Inflammatory Bowel Disease
Experiment: Treatment of patients with inflammatory bowel disease using a combination of anti-atypical mycobacterial agents (Example 1)
Protocol: Fifteen patients, aged 13 to 58, were treated with various protocols of antimycobacterial agents. Twelve patients had Crohn's disease and three ulcerative colitis. Presence of Mycobacterium paratuberculosis was identified in nine of these patients. A combination of clarithromycin (250 mg to 1.5 grams per day), rifabutin (150 mg to 750 mg per day) and clofazimine (3 mg/kg to 10 mg/kg) was used.
After four months of treatment, five patients were examined colonoscopically.
In these three patients, a combination of clarithromycin and rifabutin (same dosages as above) together with added clofazimine, 2 mg per kg, made up a preferred therapy. […] No prednisone, azathioprine or 5ASA compounds were used. […] This dose was increased at one stage to 50 mg per kg in an attempt to reverse the inflammatory process and then reduced to 10 mg per kg. […] In yet a further patient four drugs were used simultaneously because of resistance to clarithromycin. Azithromycin, 500 mg each morning (range 250-1,500 mg) was used in combination with rifabutin, clofazimine, and ethambutol.

Compound	clinical response after rifabutin was changed to ethambutol (one patient, ethambutol 400 mg twice daily, raised to 50 mg per kg, then 10 mg per kg, with clarithromycin and clofazimine)	sensitivity (adverse reaction) (one patient on the combination therapy)
CC[C@@H](CO)NCCN[C@@H](CC)CO [ethambutol]	reversal of the inflammatory process with loss of diarrhoea, loss of bleeding, and ultimately loss of urgency	
CO[C@H]1/C=C/O[C@@]2(C)Oc3c(C)c(O)c4c(c3C2=O)C2=NC3(CCN(CC(C)C)CC3)NC2=C(NC(=O)/C(C)=C\C=C\[C@H](C)[C@H](O)[C@@H](C)[C@@H](O)[C@@H](C)[C@H](OC(C)=O)[C@@H]1C)C4=O [rifabutin]		marked headaches and fever
